{
  "source": "patent US9040233B2",
  "about": "(priority 2007, dated 2015)",
  "test_system": "CD8+ T cells",
  "format": "cell-based, human",
  "note": "Read-outs that look alike come from different tables or passages of the source.",
  "data": [
    {"compound": "CC(C)[C@H](NC(=O)[C@H](Cc1ccccc1)NC(=O)[C@H](CCCNC(=N)N)NC(=O)[C@H](C)NC(=O)[C@H](Cc1c[nH]cn1)NC(=O)[C@H](C)NC(=O)[C@H](C)N)C(=O)N[C@@H](C)C(=O)N[C@@H](C)C(=O)O", "values": [
      {"measurement": "# SFU", "setting": "donor D454 (LTBI)", "value": "88 SFU/250,000 CD8+ T cells"}
    ]},
    {"compound": "CSCC[C@H](NC(=O)[C@H](CCC(=O)O)NC(=O)[C@H](C)N)C(=O)N[C@@H](CCCCN)C(=O)N[C@H](C(=O)N[C@@H](CC(=O)O)C(=O)N[C@@H](C)C(=O)N[C@@H](C)C(=O)O)[C@@H](C)O", "values": [
      {"measurement": "# SFU", "setting": "donor D466 (active TB)", "value": "2458 SFU/250,000 CD8+ T cells"}
    ]},
    {"compound": "CSCC[C@H](NC(=O)[C@H](CCC(=O)O)NC(=O)[C@H](C)N)C(=O)N[C@@H](CCCCN)C(=O)N[C@H](C(=O)N[C@@H](CC(=O)O)C(=O)N[C@@H](C)C(=O)N[C@@H](C)C(=O)N[C@H](C(=O)N[C@@H](CC(C)C)C(=O)N[C@@H](C)C(=O)O)[C@@H](C)O)[C@@H](C)O", "values": [
      {"measurement": "# SFU", "value": "1993 SFU/250,000 CD8+ T cells"}
    ]},
    {"compound": "CC(C)C[C@H](NC(=O)[C@H](Cc1ccc(O)cc1)NC(=O)[C@H](CO)NC(=O)[C@H](CCC(N)=O)NC(=O)[C@H](C)NC(=O)[C@@H](NC(=O)[C@@H]1CCCN1C(=O)[C@H](CO)NC(=O)[C@H](C)N)C(C)C)C(=O)O", "values": [
      {"measurement": "# SFU", "setting": "donor D432 (active TB)", "value": "210 SFU/250,000 CD8+ T cells"}
    ]},
    {"compound": "CC[C@H](C)[C@H](NC(=O)[C@@H](NC(=O)[C@H](C)N)C(C)C)C(=O)N[C@@H](CC(N)=O)C(=O)N[C@H](C(=O)N[C@H](C(=O)N[C@@H](CS)C(=O)N[C@@H](CC(N)=O)C(=O)N[C@@H](Cc1ccc(O)cc1)C(=O)NCC(=O)N[C@@H](CCC(N)=O)C(=O)O)[C@@H](C)O)[C@@H](C)O", "values": [
      {"measurement": "# SFU", "setting": "donor D454 (LTBI)", "value": "24 SFU/250,000 CD8+ T cells"}
    ]},
    {"compound": "CSCC[C@H](NC(=O)[C@@H](N)CCC(=O)O)C(=O)N[C@@H](CCCCN)C(=O)N[C@H](C(=O)N[C@@H](CC(=O)O)C(=O)N[C@@H](C)C(=O)N[C@@H](C)C(=O)N[C@H](C(=O)N[C@@H](CC(C)C)C(=O)O)[C@@H](C)O)[C@@H](C)O", "values": [
      {"measurement": "# SFU", "setting": "donor D480 (active TB)", "value": "387 SFU/250,000 CD8+ T cells"}
    ]},
    {"compound": "CC[C@H](C)[C@H](NC(=O)[C@H](Cc1c[nH]cn1)NC(=O)[C@H](C)NC(=O)[C@H](CC(=O)O)NC(=O)[C@H](CC(C)C)NC(=O)[C@@H](N)CC(C)C)C(=O)N1CCC[C@H]1C(=O)N[C@@H](CCC(N)=O)C(=O)N[C@@H](CC(C)C)C(=O)O", "values": [
      {"measurement": "# SFU", "setting": "donor D504 (LTBI)", "value": "<10 SFU/250,000 CD8+ T cells"}
    ]},
    {"compound": "CC[C@H](C)[C@H](NC(=O)[C@@H](N)CC(N)=O)C(=O)N[C@@H](CCCNC(=N)N)C(=O)N[C@@H](CCC(N)=O)C(=O)N[C@@H](C)C(=O)NCC(=O)N[C@H](C(=O)N[C@@H](CCC(N)=O)C(=O)N[C@@H](Cc1ccc(O)cc1)C(=O)O)C(C)C", "values": [
      {"measurement": "# SFU", "setting": "donor D481 (active TB)", "value": "1715 SFU/250,000 CD8+ T cells"}
    ]},
    {"compound": "CC(C)[C@H](NC(=O)[C@H](C)NC(=O)[C@H](C)NC(=O)[C@H](CCC(N)=O)NC(=O)[C@H](C)NC(=O)[C@H](C)NC(=O)[C@@H](N)[C@@H](C)O)C(=O)N[C@H](C(=O)N[C@@H](CCCNC(=N)N)C(=O)N[C@@H](Cc1ccccc1)C(=O)O)C(C)C", "values": [
      {"measurement": "# SFU", "value": "258 SFU/250,000 CD8+ T cells"}
    ]},
    {"compound": "ELPQWLSANR", "values": [
      {"measurement": "# SFU", "value": "<10 SFU/250,000 CD8+ T cells"}
    ]},
    {"compound": "QTVEDEARRMW", "values": [
      {"measurement": "#SFU/250,000 CD8+ T-cells", "value": 84}
    ]},
    {"compound": "RADEEQQQAL", "values": [
      {"measurement": "# SFU", "value": "120 SFU/250,000 CD8+ T cells"}
    ]}
  ]
}
